The text below walks through data of article PMC6825211 (Nature Communications, 2019).

Several values for one entry are separate records, joined by “and”; a condition that tells them apart may be missing. Equal entries are not always repeated.

The subject of one data set is human islets. In words: β-cell apoptosis (TUNEL/insulin) under diabetogenic conditions. It is filed as cell-based. Particulars: for mean TUNEL/isolation/%: 72 h. As for the experimental part: . pThr183), caspase-3 cleavage, and GAPDH or actin were analyzed by western blotting. […] Scale bar, 100 μm. […]; all by Student’s t tests.
Human islets were isolated from eight pancreases of nondiabetic organ donors at PRODO Labs and at Lille University and cultured on extracellular matrix-coated dishes (Novamed, Jerusalem, Israel)[62] or on Biocoat Collagen I coated dishes (#356400, Corning, ME, USA). […] The clonal rat β-cell line INS-1E was kindly provided by Dr. Claes Wollheim, Geneva & Lund University. Human islets were cultured in complete CMRL-1066 (Invitrogen) medium at 5.5 mM glucose, mouse islets and INS-1E cells at complete RPMI-1640 medium at 11.1 mM glucose. […] . Palmitic acid (Sigma) was dissolved at 10 mmol/l in RPMI-1640 medium containing 11% fatty acid–free bovine serum albumin (BSA) (Sigma) under an N2-atmosphere and added to the culture at 0.5 mM[64]. […] . Isolated human islets or INS-1E cells were infected with adenovirus carrying LacZ as control or MST1 or LATS2 (all Vector Biolabs), at a multiplicity of infection of 100 (human islets) or 20 (INS-1E) for 4 h[11]. Adenovirus was subsequently washed off with PBS and replaced by fresh medium with 10% FBS and the respective analysis performed after 48 h post infection.
Mouse pancreases were dissected and fixed in 4% formaldehyde at 4 °C for 12 h before embedding in paraffin[62]. Two-four-micrometer sections were deparaffinized, rehydrated, and incubated overnight at 4 °C with anti-PDX-1 (Abcam; #47267), anti-Glut2 (Chemicon; #07-1402), anti-Ki67 (Dako; #M7249), anti-phospho-Histone H3 (Ser10; Merck #06-570), and anti-NKX6.1 (DSHB, University of Iowa #F55A12[66]) in combination with TSA (Invitrogen #T30955), or for 2 h at room temperature with anti-insulin (Dako; A0546) antibodies (all at a dilution of 1:100, except anti-PDX-1, which was diluted 1:400) followed by fluorescein isothiocyanate (FITC)- or Cy3-conjugated secondary antibodies (Jackson ImmunoResearch Laboratories, West Grove, PA). Slides were mounted with Vectashield with 4′6-diamidino-2-phenylindole (DAPI) (Vector Labs). β-cell apoptosis was analyzed by the terminal deoxynucleotidyl transferase-mediated dUTP nick-end labeling (TUNEL) technique according to the manufacturer’s instructions (In Situ Cell Death Detection Kit, TMR red; Roche) and double stained for insulin. Fluorescence was analyzed by using a Nikon MEA53200 (Nikon GmbH, Dusseldorf, Germany) microscope, and images were acquired by using NIS-Elements software (Nikon).

In data set [1] the test system is obese diabetic Lepr db/db mice. In words: db/db model: ratio of secreted insulin and glucose at fed state. Format: in vivo, mouse. As to conditions: dbdb Nera.
Data set [2] concerns isolated islets from db/db mice. In words: Ex vivo β-cell apoptosis (TUNEL) in isolated db/db islets. As to conditions: for TUNEL%: dbdb islets with Nera. It is filed as cell-based, mouse.
The test system of data set [3] is isolated islets from WT C57Bl/6 mice. In words: β-cell apoptosis (TUNEL), WT islets, IL-1β/IFNγ 72 h, neratinib added for last 24 h. Format: cell-based, mouse. As to conditions: for TUNEL%: Cytokines+Nera.
For data set [4] the following is noted: clinical trials; cited from earlier work.
For another data set, the target named is CDK2 (Homo sapiens, UniProt P24941). In words: Nanosyn kinase profiling, mobility shift assay. Particulars: read-out: % inhibition by neratinib.
A further data set has as its target FGFR1 (Homo sapiens, UniProt P11362). In words: Nanosyn kinase profiling, mobility shift assay. Particulars: read-out: % inhibition by neratinib.
For another data set, the target named is IRAK4 (Homo sapiens, UniProt Q9NWZ3). In words: Nanosyn kinase profiling, mobility shift assay. Particulars: read-out: % inhibition by neratinib.
IRAK4, sequence (Q9NWZ3 whole entry): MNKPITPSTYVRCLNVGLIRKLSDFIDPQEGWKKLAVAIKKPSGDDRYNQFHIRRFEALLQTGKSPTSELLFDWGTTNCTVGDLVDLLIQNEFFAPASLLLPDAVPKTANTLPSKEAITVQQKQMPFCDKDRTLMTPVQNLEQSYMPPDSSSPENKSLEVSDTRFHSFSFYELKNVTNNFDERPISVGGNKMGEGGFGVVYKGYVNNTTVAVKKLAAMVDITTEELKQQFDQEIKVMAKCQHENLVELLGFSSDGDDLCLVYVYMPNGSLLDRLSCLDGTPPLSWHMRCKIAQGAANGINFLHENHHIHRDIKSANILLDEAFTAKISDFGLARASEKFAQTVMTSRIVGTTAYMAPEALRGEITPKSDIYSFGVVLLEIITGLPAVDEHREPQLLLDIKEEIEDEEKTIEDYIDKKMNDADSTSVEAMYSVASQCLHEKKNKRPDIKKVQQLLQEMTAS
In a further data set the target is MAPK1 (Homo sapiens, UniProt P28482). In words: Nanosyn kinase profiling, mobility shift assay. As to conditions: read-out: % inhibition by neratinib.
MAPK1, sequence (P28482 whole entry): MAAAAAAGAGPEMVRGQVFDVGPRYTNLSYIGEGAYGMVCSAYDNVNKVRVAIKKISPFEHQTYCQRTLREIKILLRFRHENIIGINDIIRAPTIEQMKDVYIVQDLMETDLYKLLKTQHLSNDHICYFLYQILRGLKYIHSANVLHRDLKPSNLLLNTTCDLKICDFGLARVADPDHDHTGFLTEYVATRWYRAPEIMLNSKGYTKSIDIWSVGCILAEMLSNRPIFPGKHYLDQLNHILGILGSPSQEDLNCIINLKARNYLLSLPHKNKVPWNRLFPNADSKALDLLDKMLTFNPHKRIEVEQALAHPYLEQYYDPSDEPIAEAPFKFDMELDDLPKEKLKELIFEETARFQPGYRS
The target of the next data set is ROCK1 (Homo sapiens, UniProt Q13464). In words: Nanosyn kinase profiling, mobility shift assay. As to conditions: read-out: % inhibition by neratinib.
ROCK1, sequence (Q13464 whole entry): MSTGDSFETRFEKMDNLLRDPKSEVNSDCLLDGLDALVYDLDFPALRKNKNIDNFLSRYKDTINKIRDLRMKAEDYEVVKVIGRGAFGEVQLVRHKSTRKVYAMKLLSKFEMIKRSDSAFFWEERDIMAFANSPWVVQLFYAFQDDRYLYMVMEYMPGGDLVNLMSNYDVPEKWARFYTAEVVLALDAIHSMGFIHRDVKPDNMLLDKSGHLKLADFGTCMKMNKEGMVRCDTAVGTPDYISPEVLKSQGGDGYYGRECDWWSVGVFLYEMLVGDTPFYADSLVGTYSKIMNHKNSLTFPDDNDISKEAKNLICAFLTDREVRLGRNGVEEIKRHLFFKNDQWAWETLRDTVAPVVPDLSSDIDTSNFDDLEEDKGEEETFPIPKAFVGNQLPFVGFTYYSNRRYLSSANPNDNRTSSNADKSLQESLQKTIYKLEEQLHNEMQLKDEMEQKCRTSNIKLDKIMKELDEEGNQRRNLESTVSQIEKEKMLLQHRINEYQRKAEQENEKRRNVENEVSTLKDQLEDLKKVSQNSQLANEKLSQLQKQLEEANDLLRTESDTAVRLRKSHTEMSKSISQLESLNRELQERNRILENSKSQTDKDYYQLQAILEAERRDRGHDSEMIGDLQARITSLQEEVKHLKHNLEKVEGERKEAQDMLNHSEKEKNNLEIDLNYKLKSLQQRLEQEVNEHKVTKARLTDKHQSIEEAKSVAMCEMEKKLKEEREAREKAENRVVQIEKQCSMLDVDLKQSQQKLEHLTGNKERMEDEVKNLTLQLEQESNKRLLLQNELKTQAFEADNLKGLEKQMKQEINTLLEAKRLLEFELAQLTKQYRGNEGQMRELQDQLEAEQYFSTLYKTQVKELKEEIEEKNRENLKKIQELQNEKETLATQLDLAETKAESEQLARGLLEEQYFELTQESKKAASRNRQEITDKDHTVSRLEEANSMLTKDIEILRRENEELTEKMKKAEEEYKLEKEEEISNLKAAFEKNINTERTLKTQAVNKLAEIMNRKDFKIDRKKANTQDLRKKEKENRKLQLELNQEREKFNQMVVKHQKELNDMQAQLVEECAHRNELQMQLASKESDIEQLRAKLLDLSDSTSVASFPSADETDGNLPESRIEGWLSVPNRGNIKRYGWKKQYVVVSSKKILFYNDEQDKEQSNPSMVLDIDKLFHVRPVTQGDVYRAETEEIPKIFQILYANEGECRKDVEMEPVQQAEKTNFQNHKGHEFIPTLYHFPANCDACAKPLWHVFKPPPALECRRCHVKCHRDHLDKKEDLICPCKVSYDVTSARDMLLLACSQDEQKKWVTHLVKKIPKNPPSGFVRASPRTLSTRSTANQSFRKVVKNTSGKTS
Data set [5] deals with isolated islets from WT mice. In words: β-cell apoptosis (TUNEL/insulin) under diabetogenic conditions, WT islets.

FGFR1, sequence (P11362 22-822): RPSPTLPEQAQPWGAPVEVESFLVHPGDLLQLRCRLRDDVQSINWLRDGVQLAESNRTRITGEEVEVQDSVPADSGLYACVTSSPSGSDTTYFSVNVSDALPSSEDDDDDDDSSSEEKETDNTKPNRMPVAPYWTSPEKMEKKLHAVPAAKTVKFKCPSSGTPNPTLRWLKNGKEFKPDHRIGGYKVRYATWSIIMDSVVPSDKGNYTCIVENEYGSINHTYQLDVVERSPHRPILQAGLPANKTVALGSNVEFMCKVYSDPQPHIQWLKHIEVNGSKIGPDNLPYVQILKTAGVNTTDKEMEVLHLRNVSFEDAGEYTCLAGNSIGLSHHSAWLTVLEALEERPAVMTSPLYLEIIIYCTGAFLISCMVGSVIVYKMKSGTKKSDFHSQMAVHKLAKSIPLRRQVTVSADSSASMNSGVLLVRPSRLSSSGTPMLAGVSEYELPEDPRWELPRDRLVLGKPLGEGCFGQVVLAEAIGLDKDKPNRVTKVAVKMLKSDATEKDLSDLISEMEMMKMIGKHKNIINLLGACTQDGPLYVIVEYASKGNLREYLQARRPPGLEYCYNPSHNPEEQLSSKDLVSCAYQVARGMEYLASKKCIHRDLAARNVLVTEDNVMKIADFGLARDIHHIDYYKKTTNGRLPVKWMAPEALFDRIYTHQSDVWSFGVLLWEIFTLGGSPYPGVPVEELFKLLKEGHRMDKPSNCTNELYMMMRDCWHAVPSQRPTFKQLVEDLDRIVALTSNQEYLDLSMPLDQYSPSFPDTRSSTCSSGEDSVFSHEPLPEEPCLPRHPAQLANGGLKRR

In the case of `CCOc1cc2ncc(C#N)c(Nc3ccc(OCc4ccccn4)c(Cl)c3)c2cc1NC(=O)/C=C/CN(C)C` [neratinib], the “toxicity at basal control levels” value with human islets (25 µM neratinib, human islets) is listed as “did not result in any detectable toxicity”. In addition, the “mean TUNEL/isolation/%” value with human islets (HG/Pal + NERA, mean of isolations, untreated = 100) was 180.73%; in the data set on human islets (HG/Pal + NERA, single islet isolations, untreated mean = 100), 224.286% and 136.508% and 181.395%; with human islets (ILIF + NERA, mean of isolations, untreated = 100), 205.757%; in data set [5] (WT HG/Pal Nera 10 μM 72 h, mean), 370.621%; in data set [5] (WT HG/Pal Nera 10 μM 72 h, single isolations, WT untreated = 100) it was 424.349% and 323.811% and 387.381% and 346.941%; in data set [5] (WT ILIF Nera 10 μM 72 h, mean) it was 814.399%. The ins/gluc in [1] (Mean) is 13.8584; in data set [1] (fed state, individual mice) it was 16.7538 and 11.2869 and 14.8626 and 15.5775 and 11.515 and 13.1546. Moreover, in [2] (10 μM, 24 h), the “β-cell survival in db/db islets ex vivo” value is listed as “fully restored β-cell survival”. The TUNEL% in data set [2] (MEAN) is 1.158%; in data set [2] (individual replicates), 1.875% and 1.213% and 0.7124% and 0.9025% and 0.3448% and 1.9025%; in [3] (MEAN), 0.4111%; in [3] (individual replicates), 0.4072% and 0.3399% and 0.4861%. For the same compound, the “β-cell survival after cytokine-induced apoptosis” value in data set [3] (IL-1β/IFNγ 48 h, then 10 μM neratinib another 24 h) is reported as “fully restored β-cell survival”. In [4], the “most common neratinib-associated adverse events” value is “diarrhea, vomiting, and nausea”. Besides, the inhibition (as a rule, the drop in the measured response relative to a control, in per cent) at 10 µM at CDK2 is 9%; at FGFR1 it was 26%; on IRAK4, 17%; at MAPK1, 12%; at ROCK1, -48%. For the same compound, the “cytokine- and glucolipotoxicity-induced apoptosis in WT islets” value in [5] (10 μM, 72 h) was “reduced cytokine- and glucolipotoxicity-induced apoptosis”.
